Patent publication USRE37421E, “Rapamycin derivatives” (SmithKline Beecham Corporation, priority 1999, dated 2001)

These molecules were tested on Spleen cells from BDF1 female mice (assay: Mitogenesis Assay for Immunosuppressive Activity (concanavalin A-stimulated spleen cells, 3H-thymidine uptake)). Conditions: BDF1 mouse spleen cells, Concanavalin A 5 μg/ml, 72 hours.
Assay type: cell-based
Protocol: Spleen cells from BDF1 female mice were established in RPMI with 10% fetal calf serum at 5×10^6 /mL. […] Concanavalin A (5μ g/ml)was added as the mitogenic stimulus, and the final volume in the microtiter wells was adjusted to 200μ L with RPMI. Cell cultures were incubated for 72 hours at 37° C. in a 5% CO2 atmosphere and pulsed with 0.5μ Ci ^3 H-thymidine (specific activity […]) for the last 18 hours of the 72 hour culture. The cells were harvested on an automated multiple sample harvester and cell-associated radioactivity counted in a Beckman liquid scintillation counter. The results are expressed as the mean values derived from quadruplicate measurements. Cell viability was determined by trypan blue exclusion after 72 hours of incubation. Compounds to be tested were added to the microtiter plates at the appropriate dilutions prior to the addition of cells.

IC50 | SMILES
1 to 10 nM | CO[C@H]1C[C@@H]2CC[C@@H](C)[C@@](O)(O2)C(O)C(=O)N2CCCC[C@H]2C(=O)O[C@H]([C@H](C)C[C@@H]2CC[C@@H](O)[C@H](OC)C2)CC(=O)[C@H](C)/C=C(\C)[C@@H](O)[C@@H](OC)C(O)[C@H](C)C[C@H](C)/C=C/C=C/C=C/1C (single isomer, unassigned) [Ex. 2, isomer 2, 14,30-Bisdihydrorapamycin]
2 nM | CO[C@H]1C[C@@H]2CC[C@@H](C)[C@@](O)(O2)C(=O)C(=O)N2CCCC[C@H]2C(=O)O[C@H]([C@H](C)C[C@@H]2CC[C@@H](O)[C@H](OC)C2)CC(=O)[C@H](C)/C=C(\C)[C@@H](O)[C@@H](OC)C(O)[C@H](C)C[C@H](C)/C=C/C=C/C=C/1C (single isomer, unassigned) [Ex. 4, isomer 1, 30-Dihydro-rapamycins]
0.1 to 1 nM | CO[C@H]1C[C@@H]2CC[C@@H](C)[C@@](O)(O2)C(=O)C(=O)N2CCCC[C@H]2C(=O)O[C@H]([C@H](C)C[C@@H]2CC[C@@H](O)[C@H](OC)C2)CC(=O)[C@H](C)/C=C(\C)[C@@H](O)[C@@H](OC)C(O)[C@H](C)C[C@H](C)/C=C/C=C/C=C/1C (single isomer, unassigned) [Ex. 4, isomer 2, 30-Dihydro-rapamycins]

Same assay, conditions: Mus musculus, Concanavalin A 5 μg/ml, 72 hours

IC50 | SMILES
1 to 10 nM | CO[C@H]1C[C@@H]2CC[C@@H](C)[C@@](O)(O2)C(O)C(=O)N2CCCC[C@H]2C(=O)O[C@H]([C@H](C)C[C@@H]2CC[C@@H](O)[C@H](OC)C2)CC(=O)[C@H](C)/C=C(\C)[C@@H](O)[C@@H](OC)C(O)[C@H](C)C[C@H](C)/C=C/C=C/C=C/1C (single isomer, unassigned) [Ex. 2, isomer 1, 14,30-Bisdihydrorapamycin]
100 to 1000 nM | CO[C@H]1C[C@@H]2CC[C@@H](C)[C@@](OC)(O2)C(O)C(=O)N2CCCC[C@H]2C(=O)O[C@H]([C@H](C)C[C@@H]2CC[C@@H](O)[C@H](OC)C2)CC(=O)[C@H](C)/C=C(\C)[C@@H](O)[C@@H](OC)C(O)[C@H](C)C[C@H](C)/C=C/C=C/C=C/1C (single isomer, unassigned) [Ex. 3, major isomer, 14,30-Bisdihydro-13-O-methylrapamycins]
10 nM | CO[C@H]1C[C@@H]2CC[C@@H](C)[C@@](O)(O2)C(O)C(=O)N2CCCC[C@H]2C(=O)O[C@H]([C@H](C)C[C@@H]2CC[C@@H](O)[C@H](OC)C2)CC(=O)[C@H](C)/C=C(\C)[C@@H](O)[C@@H](OC)C(=O)[C@H](C)C[C@H](C)/C=C/C=C/C=C/1C (single isomer, unassigned; isomer 14) [Ex. 1, major isomer, 14-Dihydrorapamycin]
100 to 1000 nM | CO[C@H]1C[C@@H]2CC[C@@H](C)[C@@](O)(O2)C(=O)C(=O)N2CCCC[C@H]2C(=O)O[C@H]([C@H](C)C[C@@H]2CC[C@@H](O)[C@H](OC)C2)CC(=O)[C@H](C)/C=C(\C)[C@H]2OC(C)(C)OC([C@H](C)C[C@H](C)/C=C/C=C/C=C/1C)[C@@H]2OC [Ex. 5, 30-Dihydro-Rapamycin-28, 30-Acetonide]
> 1000 nM | CO[C@H]1[C@@H](O)[C@H](C)C[C@H](C)/C=C/C=C/C=C(\C)[C@@H](OC)C[C@@H]2CC[C@@H](C)[C@](O)(CC(=O)N3CCCC[C@H]3C(=O)O[C@H]([C@H](C)C[C@@H]3CC[C@@H](O)[C@H](OC)C3)CC(=O)[C@H](C)/C=C(\C)[C@H]1O)O2 [Ex. 6, 14-Desoxo-30 (S) -dihydro-rapamycin]
